Results on 30 compounds are retold here after patent publication US10040802B2, “Thienopyrazine inhibitors of IRAK4 activity” (MERCK SHARP & DOHME CORP., priority 2015, dated 2018).

Structures can show the parent of a compound that is named as a salt.

Chain of GST tagged IRAK4 (Q9NWZ3 whole entry): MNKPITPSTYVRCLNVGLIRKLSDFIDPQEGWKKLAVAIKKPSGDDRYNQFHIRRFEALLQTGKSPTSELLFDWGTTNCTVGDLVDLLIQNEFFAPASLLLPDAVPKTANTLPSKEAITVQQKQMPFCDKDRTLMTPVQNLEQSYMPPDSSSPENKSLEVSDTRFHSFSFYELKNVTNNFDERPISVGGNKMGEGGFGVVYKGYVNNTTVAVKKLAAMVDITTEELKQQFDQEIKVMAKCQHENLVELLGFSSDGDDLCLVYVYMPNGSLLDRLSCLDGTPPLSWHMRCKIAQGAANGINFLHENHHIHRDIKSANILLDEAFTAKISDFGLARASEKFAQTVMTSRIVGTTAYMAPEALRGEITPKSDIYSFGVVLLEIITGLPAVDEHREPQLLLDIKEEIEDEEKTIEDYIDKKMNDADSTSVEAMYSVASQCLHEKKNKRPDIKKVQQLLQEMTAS

The target in the assay is GST tagged IRAK4 (Homo sapiens (Human), UniProt Q9NWZ3). As to the kind of experiment: IRAK4 Kinase Assay (IMAP fluorescence polarization). It is filed as biochemical. The conditions noted are these: 0.5 nM GST tagged IRAK4, 100 μM ATP, 30 minutes at 25° C. A digest of the protocol:
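GST-tagged IRAK4 (0.5 nM) phosphorylates 100 nM fluorescent peptide with 100 μM ATP in 10 mM Tris pH 7.2, 1 mM MgCl2, 1 mM DTT, 0.01% Tween 20 for 30 min at 25 °C. Phosphorylation read as IMAP nanoparticle-binding fluorescence polarization after stop reagent.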
As for `N[C@@H]1[C@H](Nc2cnc3scc(C(=O)Nc4cscc4C(F)F)c3n2)CCCC1(F)F` [Example 67, 2-{[(1R,2R)-2-amino-3,3-difluorocyclohexyl]amino}-N-[4-(difluoromethyl)thiophen-3-yl] thieno[2,3-b] pyrazine-7-carboxamide trifluoroacetate], the half-inhibitory concentration (IC50) was found to be 330 nM. The result for `N[C@@H]1[C@H](Nc2cnc3scc(C(=O)Nc4cscc4Br)c3n2)CCCC1(F)F` [Example 68, 2-{[(1R,2R)-2-amino-3,3-difluorocyclohexyl]amino}-N-(4-bromothiophen-3-yl) thieno[2,3-b] pyrazine-7-carboxamide formate] reads 2100 nM. Turning to `N[C@@H]1[C@H](Nc2cnc3scc(C(=O)Nc4ccsc4Br)c3n2)CCCC1(F)F` [Example 71, 2-{[(1R,2R)-2-amino-3,3-difluorocyclohexyl]amino}-N-(2-bromothiophen-3-yl) thieno[2,3-b] pyrazine-7-carboxamide trifluoroacetate], half-maximal inhibition (IC50) was put at 2070 nM. This IC50 and that of the compound before are within 1.5-fold of each other.

In turn, `N#Cc1sccc1NC(=O)c1csc2ncc(N3CCCNCC3)nc12` [Example 72, N-(2-cyanothiophen-3-yl)-2-(1,4-diazepan-1-yl)thieno[2,3-b] pyrazine-7-carboxamide trifluoroacetate] had an IC50 of 422 nM. This IC50 lies about 4.9-fold lower than the previous one. For `O=C(Nc1ccsc1C(F)(F)F)c1csc2ncc(N3CCCNCC3)nc12` [Example 73, 2-(1,4-diazepan-1-yl)-N-[2-(trifluoromethyl)thiophen-3-yl] thieno[2,3-b] pyrazine-7-carboxamide trifluoroacetate], the IC50 was determined as 1590 nM. Then `N[C@H]1CCCC[C@H]1Nc1cnc2scc(C(=O)Nc3ccsc3C(F)(F)F)c2n1` [Example 76, 2-{[(1R,2S)-2-amino-cyclohexyl]amino}-N-(2-(trifluoromethyl)thiophen-3-yl] thieno[2,3-b] pyrazine-7-carboxamide trifluoroacetate], with 12 nM; and `N#Cc1sccc1NC(=O)c1csc2ncc(N[C@@H]3CCCC[C@@H]3N)nc12` [Example 77, 2-{[(1R,2S)-2-amino-cyclohexyl]amino}-N-(2-(cyanothiophen-3-yl)thieno[2,3-b]pyrazine-7-carboxamide trifluoroacetate], with 0.5 nM; and `N#Cc1sccc1NC(=O)c1csc2ncc(N[C@@H]3CCCC(F)(F)[C@@H]3N)nc12` [Example 78, 2-{[(1R,2R)-2-amino-3,3-difluorocyclohexyl]amino}-N-(2-cyanothiophen-3-yl) thieno[2,3-b] pyrazine-7-carboxamide trifluoroacetate], with 3660 nM. Then `N#Cc1cscc1NC(=O)c1csc2ncc(N[C@@H]3CCCC(F)(F)[C@@H]3N)nc12` [Example 79, 2-{[(1R,2R)-2-amino-3,3-difluorocyclohexyl]amino}-N-(4-cyanothiophen-3-yl) thieno[2,3-b] pyrazine-7-carboxamide trifluoroacetate], with 371 nM.

Compound `N#Cc1ccccc1NC(=O)c1csc2ncc(N3CCCNCC3)nc12` [Example 80, N-(2-Cyanophenyl)-2-(1,4-diazepan-1-yl)thieno[2,3-b]pyrazine-7-carboxamide] gave a concentration for half-maximal inhibition (IC50) of 558 nM. This IC50 is about 1.5-fold higher than that of the compound before. In turn, `N[C@H]1CCCC[C@H]1Nc1cnc2scc(C(=O)Nc3ccccc3C(F)(F)F)c2n1` [Example 81, 2-{[(1R,2S)-2-aminocyclo-hexyl]amino}-N-[2-(trifluoromethyl)phenyl]thieno[2,3-b]pyrazine-7-carboxamide trifluoroacetate] registered a half-maximal inhibitory concentration (IC50) of 86 nM. The result for `O=C(Nc1ccccc1Br)c1csc2ncc(N3CCCNCC3)nc12` [Example 82, N-(2-bromophenyl)-2-(1,4-diazepan-1-yl)thieno[2,3-b]pyrazine-7-carboxamide trifluoroacetate] reads 2340 nM. Then `N#Cc1ccccc1NC(=O)c1csc2ncc(N3CCNCC4(CC4)C3)nc12` [Example 83, N-(2-cyanophenyl)-2-(5,8-diazaspiro-[2.6]non-5-yl)-thieno[2,3-b]-pyrazine-7-carboxamide trifluoroacetate], with 899 nM; and `N#Cc1ccccc1NC(=O)c1csc2ncc(N3CCC[C@@H](N)C3)nc12` [Example 84, 2-[(3R)-3-aminopiperidin-1-yl]-N-(2-cyanophenyl)-thieno[2,3-b]-pyrazine-7-carboxamide trifluoroacetate], with 33 nM; and `N#Cc1ccccc1NC(=O)c1csc2ncc(N[C@@H]3CCCNC3)nc12` [Example 85, N-(2-cyanophenyl)-2-[(3R)-piperidin-3-ylamino]-thieno[2,3-b]-pyrazine-7-carboxamide trifluoroacetate], with 2 nM. On to `N#Cc1ccccc1NC(=O)c1csc2ncc(N3CCNCC3)nc12` [Example 86, N-(2-cyanophenyl)-2-piperazin-1-yl-thieno[2,3-b]-pyrazine-7-carboxamide trifluoroacetate], for which half-maximal inhibition (IC50) was put at 292 nM.

Compound `N[C@H]1CCCC[C@H]1Nc1cnc2scc(C(=O)Nc3ccccc3Br)c2n1` [Example 87, 2-{[(1R,2S)-2-aminocyclohexyl]-amino}-N-(2-bromophenyl)-thieno[2,3-b]-pyrazine-7-carboxamide trifluoroacetate] registered an IC50 of 2 nM. The result for `O=C(Nc1ccccc1C(F)(F)F)c1csc2ncc(N3CCCNCC3)nc12` [Example 90, 2-(1,4-diazepan-1-yl)-N-[2-(trifluoromethyl)phenyl]thieno[2,3-b]pyrazine-7-carboxamide trifluoroacetate] reads 6400 nM. Then `O=C(Nc1ccccc1Cl)c1csc2ncc(N3CCCNCC3)nc12` [Example 91, N-(2-chlorophenyl)-2-(1,4-diazepan-1-yl)thieno[2,3-b]-pyrazine-7-carboxamide trifluoroacetate], with 595 nM. The result for `N[C@H]1CCCC[C@H]1Nc1cnc2scc(C(=O)Nc3ccccc3Cl)c2n1` [Example 92, 2-{(1R,2S)-2-aminocyclohexyl]-amino}-N-(2-chlorophenyl)-thieno[2,3-b]-pyrazine-7-carboxamide trifluoroacetate] reads 0.8 nM; that for `N#Cc1ccccc1NC(=O)c1csc2ncc(N[C@@H]3CCCC[C@@H]3N)nc12` [Example 95, 2-{[(1R,2S)-2-aminocyclohexyl]-amino}-N-(2-cyanophenyl)-thieno[2,3-b]-pyrazine-7-carboxamide trifluoroacetate], 0.5 nM. As for `N[C@@H]1[C@H](Nc2cnc3scc(C(=O)Nc4ccccc4Br)c3n2)CCCC1(F)F` [Example 96, 2-{[(1R,2R)-2-amino-3,3-difluorocyclo-hexyl]amino}-N-(2-bromo-phenyl)thieno-[2,3-b]-pyrazine-7-carboxamide], the midpoint of inhibition, the IC50, lay at 2010 nM. In turn, `N[C@@H]1[C@H](Nc2cnc3scc(C(=O)Nc4ccccc4Cl)c3n2)CCCC1(F)F` [Example 101, 2-{[(1R,2R)-2-amino-3,3-difluorocyclohexyl]-amino}-N-(2-chlorophenyl)-thieno[2,3-b]-pyrazine-7-carboxamide trifluoroacetate] registered an IC50 of 545 nM. Compared with the last compound, the IC50 is about 3.7-fold lower.

Regarding `N[C@H]1CCCC[C@H]1Nc1cnc2scc(C(=O)Nc3ccccc3C(F)F)c2n1` [Example 102, 2-{[(1R,2S)-2-aminocyclohexyl]-amino}-N-[2-(difluoromethyl)phenyl]thieno-[2,3-b]-pyrazine-7-carboxamide trifluoroacetate], the IC50 is 25 nM.

Compound `O=C(Nc1ccccc1C(F)F)c1csc2ncc(N3CCCNCC3)nc12` [Example 103, 2-(1,4-diazepan-1-yl)-N-[2-(difluoromethyl)phenyl]thieno[2,3-b]pyrazine-7-carboxamide trifluoroacetate] came in with an IC50 of 3630 nM. Compound `N#Cc1ccccc1NC(=O)c1csc2ncc(N[C@@H]3CCCC(F)(F)[C@@H]3N)nc12` [Example 105, 2-{[(1R,2R)-2-amino-3,3-difluorocyclohexyl]-amino}-N-(2-cyanophenyl)-thieno[2,3-b]-pyrazine-7-carboxamide trifluoroacetate] gave a 50% inhibitory concentration (IC50) of 146 nM.

In turn, `N[C@@H]1[C@H](Nc2cnc3scc(C(=O)Nc4ccccc4C(F)F)c3n2)CCCC1(F)F` [Example 106, 2-{[(1R,2R)-2-amino-3,3-difluorocyclohexyl]-amino}-N-[2-(difluoromethyl)phenyl]thieno[2,3-b]pyrazine-7-carboxamide trifluoroacetate] yielded an IC50 of 2580 nM.

In turn, `O=C(Nc1cscc1Cl)c1csc2ncc(N3CCCNCC3)nc12` [Example 107, N-(4-chlorothiophen-3-yl)-2-(1,4-diazepan-1-yl)-thieno[2,3-b]-pyrazine-7-carboxamide trifluoroacetate] gave an IC50 of 151 nM. Take `N[C@H]1CCCC[C@H]1Nc1cnc2scc(C(=O)Nc3cscc3Cl)c2n1` [Example 110, 2-{[(1R,2S)-2-aminocyclohexyl]-amino}-N-(4-chlorothiophen-3-yl)thieno[2,3-b]-pyrazine-7-carboxamide trifluoroacetate]: the IC50 turned out to be 0.7 nM.

Compound `N[C@@H]1[C@H](Nc2cnc3scc(C(=O)Nc4cscc4Cl)c3n2)CCCC1(F)F` [Example 111, 2-{[(1R,2R)-2-amino-3,3-difluorocyclohexyl]-amino}-N-(4-chlorothiophen-3-yl)thieno[2,3-b]-pyrazine-7-carboxamide trifluoroacetate] showed an IC50 of 645 nM.
